# Laboratory results from publication PMC4894652 (Neuron, 2016).
# Target: T1, DmSLC22A (CG7442) (Drosophila melanogaster, UniProt Q7JRD5)
# T1 sequence (Q7JRD5 1-568): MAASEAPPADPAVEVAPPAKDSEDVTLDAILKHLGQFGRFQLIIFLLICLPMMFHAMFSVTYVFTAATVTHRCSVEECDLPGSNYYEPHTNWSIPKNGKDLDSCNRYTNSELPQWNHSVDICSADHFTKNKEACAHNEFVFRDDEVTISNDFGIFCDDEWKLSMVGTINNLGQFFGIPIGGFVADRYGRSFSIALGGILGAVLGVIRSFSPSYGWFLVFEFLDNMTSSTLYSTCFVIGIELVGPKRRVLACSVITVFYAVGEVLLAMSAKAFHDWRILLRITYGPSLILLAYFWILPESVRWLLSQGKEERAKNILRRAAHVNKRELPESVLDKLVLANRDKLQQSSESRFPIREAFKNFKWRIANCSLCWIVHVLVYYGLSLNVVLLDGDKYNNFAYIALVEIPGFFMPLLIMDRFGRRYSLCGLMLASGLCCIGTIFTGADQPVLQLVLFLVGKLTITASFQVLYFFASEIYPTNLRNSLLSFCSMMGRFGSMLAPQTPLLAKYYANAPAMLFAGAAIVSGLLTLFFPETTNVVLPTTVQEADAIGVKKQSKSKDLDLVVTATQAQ
# Format: cell-based
# Settings: labelled compound; doxycycline-induced vs un-induced cells
row,SMILES,apparent Km
1,C[n+]1ccc(-c2ccccc2)cc1 [MPP],Table S2 lists the apparent Km and Vmax values for each substrate
2,CC[N+](CC)(CC)CC [TEA],Table S2 lists the apparent Km and Vmax values for each substrate
3,CC(=O)OCC[N+](C)(C)C [acetylcholine],choline and acetylcholine are transported with low μM Km values
4,C[N+](C)(C)CC(=O)[O-] [betaine],Table S2 lists the apparent Km and Vmax values for each substrate
5,C[N+](C)(C)CCO [choline],choline and acetylcholine are transported with low μM Km values
6,NCCc1c[nH]cn1 [histamine],Table S2 lists the apparent Km and Vmax values for each substrate
7,NCCc1c[nH]c2ccc(O)cc12 [serotonin],Table S2 lists the apparent Km and Vmax values for each substrate
